Results taken from paper PMC4535766, “Antiprotozoal Activity Profiling of Approved Drugs: A Starting Point toward Drug Repositioning” (PLoS ONE, 2015).
Structures can show the parent of a compound that is named as a salt. Where two headings read alike, the source gives them in different places.

What was measured:
in vitro = conditions: rat
Experimental: (§1) Drug stock solutions (10mg/ml) were in DMSO (100%). […] Selectivity index (SI) was calculated as IC50 L6 cells/IC50 parasite.

[1] = tested on: T. cruzi, strain Tulahuen C4, intracellular amastigotes; assay: microbe, parasite or virus in culture; conditions: for selectivity ratio: rat, Selectivity index: IC50 Cytotoxicity L6/ IC50 T. cruzi
Experimental: as §1

P. falciparum strain K1 = assay: In vitro activity against P. falciparum, serial drug dilution assay; conditions: for selectivity ratio: rat; for Activity against P. falciparum (in words): in vitro
Experimental: as §1

[2] = tested on: L. donovani strain MHOM-ET-67/L82 amastigotes; assay: in vitro; conditions: mouse
In short: (§2)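 Axenic amastigotes grown at pH 5.4 infected mouse peritoneal macrophages for 4 h before free parasites were washed off. Next day, seven 3-fold drug dilutions (30–0.04 μg/ml) were added for 96 h. Giemsa-stained infected macrophages were counted, burden reduction was taken vs untreated controls, and IC50 came from linear regression.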

[3] = tested on: intracellular amastigotes of L. donovani strain MHOM-ET-67/L82; assay: Activity against Leishmania donovani intracellular amastigotes in mouse peritoneal macrophages
In short: as §2

[4] = tested on: axenic amastigotes of L. donovani, strain MHOM-ET-67/L82; assay: In vitro activity against L. donovani axenic amastigotes, serial drug dilution assay; assay type: cell-based, Leishmania donovani
Experimental: as §1

[5] = Cytotoxicity on macrophages infected with L. donovani; assay type: cell-based, mouse; conditions: mouse
Experimental: (§3) After 24 h 1.2 x 10^5 amastigote L. donovani in 100 μl were added. The amastigotes were taken from an axenic culture grown at pH 5.4. Four hours later, the medium containing free amastigote forms was removed and replaced by fresh medium. The next day the medium was replaced by medium with or without a serial drug dilution of seven 3-fold dilution steps covering a range from 30 to 0.04 μg/ml. Parasite growth in the presence of the drug was compared to control wells. After 96 h of incubation, the medium was removed and the slides fixed with methanol for 10 min followed by staining with a 10% Giemsa solution. Infected and non-infected macrophages were counted for the control cultures and those exposed to the serial drug dilutions. The infection rates were determined. The results were expressed as a percentage reduction in parasite burden compared to control wells, and the IC50 was calculated by linear regression analysis.

[6] = tested on: macrophages infected with L. donovani; assay: as above; assay type: cell-based, mouse
Experimental: as §3

[7] = tested on: T. b. rhodesiense strain STIB 900, trypomastigotes; assay: In vitro activity against T. b. rhodesiense, serial drug dilution assay; conditions: for Activity against T. b. rhodesiense (in words): in vitro; for selectivity ratio: rat
Experimental: as §1

L6 cells = assay: in vitro
Experimental: as §1

[8] = In vitro cytotoxicity with mouse peritoneal macrophages (Alamar Blue); assay type: cell-based
Experimental: After 96 h of incubation, the plates were inspected under an inverted microscope to assure sterility. […] The IC50 values were calculated by linear regression from the sigmoidal dose inhibition curves using SoftmaxPro software (Molecular Devices Cooperation, Sunnyvale, CA, USA).

[9] = Trypanosoma cruzi, TULAHUEN, read-out: IC50 T. cruzi
[10] = Plasmodium falciparum, K1, read-out: IC50 P. falc. K1
[11] = Selectivity index: IC50 Cytotoxicity macrophages/ IC50 L. donovani
[12] = Leishmania donovani, Peritoneal macrophage, in Mus musculus, 96 h, read-out: IC50 L. don. intracell
[13] = Leishmania donovani, axenic amastigotes, strain MHOM-ET-67/L82, means of two independent assays, read-out: IC50 L. don. axen.
[14] = macrophages infected with L. donovani, read-out: IC50 Cytotox. mac.inf.
[15] = Trypanosoma brucei, read-out: IC50 T. b. rhod.
[16] = read-out: IC50 P. falc. K1, strain K1, means of two independent assays
[17] = read-out: IC50 L. don. intracell, intracellular amastigotes in mouse peritoneal macrophages, strain MHOM-ET-67/L82, 96 h
[18] = axenic amastigotes, strain MHOM-ET-67/L82, means of two independent assays, read-out: IC50 L. don. axen.
[19] = read-out: IC50 T. b. rhod., strain STIB 900, trypomastigotes, means of two independent assays
[20] = mouse peritoneal macrophages versus L. donovani amastigotes, Selectivity index: IC50 Cytotoxicity macrophages/ IC50 L. donovani, axenic or intracellular IC50 not specified
[21] = Trypanosoma cruzi, TULAHUEN, read-out: T. cruzi IC50
[22] = Plasmodium falciparum, K1, read-out: P. falc. IC50
[23] = Trypanosoma brucei, read-out: T. b. rhod. IC50
[24] = L6 cells, IC50 Cytotox. L6, L6 cells, means of two independent assays
[25] = Selectivity index: IC50 Cytotoxicity L6/ IC50 P. falciparum
[26] = Leishmania donovani, Peritoneal macrophage, in Mus musculus, read-out: L. don. intracell IC50
[27] = Leishmania donovani, L. donovani axenic amastigotes, read-out: L. don. axen. IC50
[28] = read-out: IC50 Cytotox. L6, L6 cells, means of two independent assays
[29] = infected macrophages, read-out: Cytotox. mac.inf. IC50

Compound | IC50 (in vitro; IC50 Cytotox. L6) [µM] | IC50 [1, 9] [µM] | IC50 (P. falciparum strain K1; [10]) [µM] | IC50 [3, 12] [µM] | IC50 [4, 13] [µM] | IC50 at 96 h [5, 14] [µM] | IC50 [7, 15] [µM] | IC50 at 96 h ([8]; mouse) [µM] | further results
O=C(O)c1nn(Cc2ccc(Cl)cc2Cl)c2ccccc12 [Lonidamine] | 273 | 177 | > 15.6 | > 93.4 | 8.66 | > 93.4 | 135 |  | selectivity ratio at 96 h [2, 11]: > 11; IC50 [6, 14]: > 93.4 µM
NNC(=O)c1ccncc1 [Izoniazide] |  |  |  |  |  |  |  |  | IC50 (L6 cells): > 656 µM; IC50 (P. falciparum strain K1; [16]): > 36.5 µM; IC50 [3, 17]: > 219 µM; IC50 [4, 18]: > 656 µM; IC50 [6]: > 219 µM; IC50 [7, 19]: > 656 µM
Cc1cc(C2CCCCC2)n(O)c(=O)c1 [Ciclopirox olamine] | 1.04 | 2.49 | 3.75 | 9.09 | 1.64 | 20.3 | 0.8 | 20.3 | selectivity ratio at 96 h [2, 20]: 9; IC50 [6, 14]: > 11.2 µM
CC1CS(=O)(=O)CCN1/N=C/c1ccc([N+](=O)[O-])o1 (centres unmarked) [Nifurtimox] | 87 | 0.19 |  | 20.7 | 2.76 | 34.8 | 1.44 | 15.7 | selectivity ratio [1]: 458; selectivity ratio at 96 h [2, 11]: 13; IC50 [6, 14]: > 34.8 µM; Activity against T. b. rhodesiense (in words) [7]: active; selectivity ratio ([7]; Selectivity index: IC50 Cytotoxicity L6/ IC50 T. b. rhodesiense): 60
CC(C)/N=c1\cc2n(-c3ccc(Cl)cc3)c3ccccc3nc-2cc1Nc1ccc(Cl)cc1 [Clofazimine] |  |  |  | 0.95 | 22.4 | 6.34 |  | 10.7 | IC50 (in vitro; Cytotox. L6 IC50): 9.97 µM; IC50 [1, 21]: 38.2 µM; IC50 (P. falciparum strain K1; [22]): 4.1 µM; selectivity ratio at 96 h [2, 11]: ~10; IC50 [7, 23]: 7.63 µM
O=C(Nc1ccc([N+](=O)[O-])cc1Cl)c1cc(Cl)ccc1O [Niclosamide] | 2.3 | 2.49 | 1.14 | > 0.31 | 0.15 |  | 1.67 |  | Activity against intracellular amastigotes at a fixed concentration ([3]; at a concentration of 0.1 μg/ml): inactive; MCC at 96 h [5, 14]: 1010 nM; Concentrations toxic to mouse macrophages ([6]; mouse, 96 h): > 300 ng/mL
N=C(N)c1ccc(OCCCCCOc2ccc(C(=N)N)cc2)cc1 [Pentamidine] | 8.87 | 4.44 |  | 2.63 | 19.8 | > 29.4 | 0.01 | 7.78 | Activity against T. b. rhodesiense (in words) [7]: active; selectivity ratio [7]: 887
CCN(CC)CCCCCCNc1cc(OC)cc2c(C)ccnc12 [Sitamaquine] |  |  | 0.08 |  |  |  |  | 21.4 | IC50 (in vitro; [24]): 32.3 µM; IC50 [1, 21]: 22 µM; selectivity ratio (P. falciparum strain K1; [25]): 404; Activity against L. donovani intracellular amastigotes (in words) [3]: moderate activity; IC50 [3, 26]: 19.5 µM; Activity against L. donovani axenic amastigotes (in words) [4]: moderate activity; IC50 [4, 27]: 13.7 µM; IC50 at 96 h ([5]; mouse peritoneal macrophages infected with L. donovani, infected macrophages, read-out: Cytotox. mac.inf. IC50): > 29.1 µM; IC50 [7, 23]: 7.39 µM
Clc1ccc(C(Cn2ccnc2)OCc2ccsc2Cl)c(Cl)c1 (centres unmarked) [Tioconazole] | 19.5 | 0.064 | 0.63 | 13.1 | 9.26 |  | 29.9 | 51.1 | Activity against P. falciparum (in words) (P. falciparum strain K1): active; selectivity ratio (P. falciparum strain K1; [25]): 31; Activity against L. donovani intracellular amastigotes (in words) [3]: active with low selectivity
Clc1ccc(COC(Cn2ccnc2)c2ccc(Cl)cc2Cl)cc1 (centres unmarked) [Econazole (Nitrate salt), Econazole] | 15.6 |  |  |  |  |  |  | 22.8 | Activity against P. falciparum (in words) (P. falciparum strain K1): active
C[C@@H]1[C@H](O)[C@@H](C)/C=C/C=C/C=C/C=C/C=C/C=C/C=C/[C@H](O[C@@H]2O[C@H](C)[C@@H](O)[C@H](N)[C@@H]2O)C[C@@H]2O[C@](O)(C[C@@H](O)C[C@@H](O)[C@H](O)CC[C@@H](O)C[C@@H](O)CC(=O)O[C@H]1C)C[C@H](O)[C@H]2C(=O)O [Amphotericin B] |  | 56.7 | 0.8 | 0.31 | 0.34 | 32.4 | 0.76 | 22.4 | IC50 (in vitro): 10.3 µM; selectivity ratio (P. falciparum strain K1): 13; selectivity ratio at 96 h [2]: 95; selectivity ratio [7]: 14
Clc1ccccc1C(c1ccccc1)(c1ccccc1)n1ccnc1 [Clotrimazole] | 2.99 |  |  |  |  |  |  | 32.5 | Activity against P. falciparum (in words) (P. falciparum strain K1): active; Activity against L. donovani intracellular amastigotes (in words) [3]: active with low selectivity
OC(Cn1cncn1)(Cn1cncn1)c1ccc(F)cc1F [Fluconazole] |  | 9.96 |  | > 98 | 211 | > 98 | 273 |  | IC50 (in vitro; [24]): > 294 µM; IC50 (L6 cells; [28]): > 294 µM; selectivity ratio [1]: > 30
Clc1ccc(COC(Cn2ccnc2)c2ccc(Cl)cc2Cl)c(Cl)c1 (centres unmarked) [Miconazole (Nitrate salt), Miconazole] | 15.4 |  |  |  |  |  |  | 23.9 | Activity against P. falciparum (in words) (P. falciparum strain K1): active
Bacitracine |  |  |  |  |  |  |  |  | IC50 (L6 cells; [28]): 42.2 µM; IC50 ([1]; read-out: IC50 T. cruzi, strain Tulahuen C4, intracellular amastigotes, means of two independent assays): 47.1 µM; IC50 (P. falciparum strain K1; [16]): 19.8 µM; IC50 [3, 17]: > 21.1 µM; IC50 [4, 18]: > 70.3 µM; IC50 [7, 19]: > 70.3 µM
CCC[C@@]1(CCc2ccccc2)CC(O)=C([C@H](CC)c2cccc(NS(=O)(=O)c3ccc(C(F)(F)F)cn3)c2)C(=O)O1 [Tipranavir] |  | 28.2 | 44.6 | > 49.8 | < 3 |  | 26.4 |  | IC50 (in vitro; [24]): 53.4 µM; selectivity ratio at 96 h [2, 11]: > 30; IC50 [4, 18]: 1.64 µM; IC50 at 96 h ([5]; mouse peritoneal macrophages infected with L. donovani, macrophages infected with L. donovani, read-out: IC50 Cytotox. mac.inf.): > 50 µM; IC50 [6, 14]: > 49.8 µM
Cc1c(C)c2c(c(C)c1O)CCC(C)(COc1ccc(CC3SC(=O)NC3=O)cc1)O2 (centres unmarked) [Troglitazone] |  |  |  | > 67.9 | 4.26 | > 68 |  |  | IC50 (in vitro; Cytotox. L6 IC50): 80.6 µM; IC50 [1, 21]: 32.6 µM; IC50 (P. falciparum strain K1; [22]): 7.27 µM; selectivity ratio at 96 h [2, 20]: > 16; IC50 at 96 h [5, 29]: > 67.9 µM; IC50 [7, 23]: 59.3 µM
COc1cc(NC(C)CCCN)c2ncccc2c1 (centres unmarked) [Primaquine] |  |  |  |  |  |  |  |  | IC50 (in vitro): 43.2 µM; IC50 [1, 21]: 17.9 µM; IC50 [3, 26]: 28.2 µM; IC50 [4, 27]: 48.6 µM; IC50 at 96 h [5, 29]: > 38.6 µM; IC50 [7, 23]: 4.78 µM; IC50 at 96 h ([8]; peritoneal mouse macrophages, read-out: Cytotox. PMM IC50): 39.7 µM
